Data from patent US20250205372A1, “RADIOPHARMACEUTICAL COMPOSITIONS, SYNTHETIC METHODS, AND METHODS OF TREATMENT” (The Research Foundation for The State University of New York, priority 2022, published 2025).
Values belong to the substance of their own block, whether it stands above or below them.

How the values were obtained:
Format in all cases: physicochemical
[1] = Cleavage assay for cold complexes: pH-dependent autolytic cleavage monitored by LCMS/analytical HPLC; settings: 80° C. and pH 4.5
Procedure: Cleavage of the cold model complexes was observed over a range of physiological pH conditions, including pH values of 4.5, 5.5, 6.5, and 7.5. Aqueous buffer solutions were prepared using 10 mM sodium acetate (pH 4.5 and 5.5) or 10 mM HEPES (pH 6.5 and 7.5), which were subsequently adjusted to the desired pH using NaOH and/or HCl. An aliquot of the complex was placed in an aqueous solution of the desired pH and incubated for 48 hours at 80° C., monitored regularly via LCMS.

[2] = Variable temperature mass spectrometry (VTMS): binding of the first second sphere water; settings: gas phase
Procedure: VTMS and CIVP: All experiments were carried out in a home-built quadrupole time-of-flight mass spectrometer described elsewhere (Waller, 2019). Briefly, the complexes were introduced into the gas phase via an electrospray ionization (ESI) source purged with dry air using PEEK tubing of 50 μm inner diameter. All samples were diluted to 50-100 μM in 50/50 acetonitrile/water from 500 μM stock solutions and an optimized flow rate of 0.6 μL/min was employed. The ESI voltages were typically 2050-2080 V, low enough to prevent sample degradation while still ensuring steady signal. Once generated, the ions were introduced into a vacuum system and stored in a room temperature […] trap. Ions were extracted from this trap and mass selected by a quadrupole mass filter (Extrel), then guided into a cryogenically cooled ion trap capable of operating in a temperature range of 310 K-3 K. For Variable temperature mass spectrometry (VTMS) measurements (Racow, 2019), a mixture of water and helium was introduced via a pulsed valve allowing the formation of hydrated complexes, if thermodynamically feasible. A fraction of ions was then extracted, at 10 Hz, into a reflectron time-of-flight (TOF) mass spectrometer to analyze the relative intensities of the resulting hydrates. The trap was cooled down from 310 K at a rate of ˜1 K/min and mass spectra were collected by summing 1000 scans at 10 K intervals in the cooling down period. The partial pressure of water was maintained between 4×10−8 to 2×10^−7 Torr as detected by a residual gas analyzer (Extorr). Vibrational spectra were recorded using a method known as Cryogenic Ion Vibrational Predissociation (CIVP) spectroscopy as described previously (Yang 2019). Briefly, a mixture of N2 and helium was seeded into the cryogenic ion trap, encouraging the formation of nitrogen adducts (so-called “tags”) typically between 45 K-48 K. Tagged complexes were extracted into the TOF and intersected by a tunable infrared laser pulse from a Nd:YAG pumped OPO/OPA system (LaserVision). The tagged ions absorb a single photon when the wavelength is resonant with a vibrational transition, resulting in the desorption of the tag from the ions. Fragment ion yields were subsequently quantified by a reflectron mass spectrometer. The ratio of fragment to tagged ions, corrected for the laser power, at each wavelength thus yields a linear absorption spectrum of the ions of interest that can be analyzed in the same way as atypical FTIR spectrum.
Data Analysis and Detailed Discussion. The variable temperature mass spectra and corresponding speciation curves of the protonated tripeptide+NOTA (4) and the Ga-tripeptide-NOTA complex (^natGa-4) are shown in FIGS. 71-75. At the highest temperature shown in both figures, no water adduct is observed. […] Similar values were found for the metal-free complex, further confirming that only second sphere hydration events were observed.

[3] = Temperature-dependent autolytic release from ^67Ga-radiolabeled model peptides (radioHPLC)
Procedure: ^67Ga-citrate was purchased from Jubilant Radiopharma at an average specific activity of 205.0 MBq/mL. The ^67Ga-citrate solution was first converted to ^67GaCl3 using an established solid-phase extraction protocol (Pandy, 2021). The resulting average specific activity of the obtained ^67Ga-chloride solution used for solution radio-labelling was 80.5 MBq/mL. For radio-labeling of NOTA-based model peptides or compound 10, a 20 μL aliquot containing 4.5 MBq of ^67GaCl3 was added to the conjugate (10 nmol, 300 μL) in 10 mM of sodium acetate (NaOAc) buffer. The pH of the solution was adjusted to 5.0. Radiolabeling was completed after 20 minutes at room temperature. The radiolabeled conjugates were characterized with radio-HPLC.

[4] = Quantitation of the ^68Ga(8) product released from TG-10 resin over time

autolytic release (analytical HPLC chromatograms) [1]: no autolytic release
Substance: ^natGallium 2,2′,2″-(10-(2-((1-1-((2-(((S)-1-amino-3-(1H-indol-3-yl)-1-oxopropan-2-yl)amino)-2-oxoethyl)amino)-3-hydroxy-1-oxopropan-2-yl)amino)-2-oxoethyl)-1,4,7,10-tetraazacyclododecane-1,4,7-triyl)triacetate [^natGa-5]

ΔG (ΔG^298) for the binding of the first second sphere water [2]: -6.74 ± 0.19 kcal/mol | ΔH for the binding of the first second sphere water [2]: -13.2 ± 0.12 kcal/mol | ΔS for the binding of the first second sphere water [2]: −91.3 +/− 2.2 J/mol K
Substance: 2,2′-(7-(2-((1-1-((2-(((S)-1-amino-3-(1H-indol-3-yl)-1-oxopropan-2-yl)amino)-2-oxoethyl)amino)-3-hydroxy-1-oxopropan-2-yl)amino)-2-oxoethyl)-1,4,7-triazonane-1,4-diyl)diacetic acid [Compound 4]

autolytic release (analytical HPLC chromatograms) [1]: no autolytic release
Substance: ^natCopper 2,2′,2-(10-(2-(((R)-1-((2-(((S)-1-amino-3-(1H-indol-3-yl)-1-oxopropan-2-yl)amino)-2-oxoethyl)amino)-3-hydroxy-1-oxopropan-2-yl)amino)-2-oxoethyl)-1,4,7,10-tetraazacyclododecane-1,4,7-triyl)triacetate [^natCu-5]

autolytic release (analytical radioHPLC chromatograms) ([3]; 25° C.): no autolytic release | autolytic release (analytical radioHPLC chromatograms) ([3]; 37° C.): no autolytic release | autolytic release (analytical radioHPLC chromatograms) ([3]; 80° C.): no autolytic release
Substance: ^67Gallium 2,2′,2″-(10-(2-((1-1-((2-(((S)-1-amino-3-(H-indol-3-yl)-1-oxopropan-2-yl)amino)-2-oxoethyl)amino)-3-hydroxy-1-oxopropan-2-yl)amino)-2-oxoethyl)-1,4,7,10-tetraazacyclododecane-1,4,7-triyl)triacetate [^67Ga-5]

Activity released per time ([4]; released from TG-10, 10 min): 14.2 ± 1.57% | Cumulative released activity ([4]; released from TG-10, 10 min): 14.2 ± 1.57% | Activity released per time ([4]; released from TG-10, 20 min): 17.9 ± 0.97% | Cumulative released activity ([4]; released from TG-10, 20 min): 32.1 ± 0.60% | Activity released per time ([4]; released from TG-10, 30 min): 18.9 ± 0.61% | Cumulative released activity ([4]; released from TG-10, 30 min): 50.9 ± 1.21% | Activity released per time ([4]; released from TG-10, 60 min): 15.4 ± 0.85% | Cumulative released activity ([4]; released from TG-10, 60 min): 66.3 ± 0.36% | Activity released per time ([4]; released from TG-10, 90 min): 11.5 ± 0.84% | Cumulative released activity ([4]; released from TG-10, 90 min): 77.8 ± 1.20% | Activity released per time ([4]; released from TG-10, 120 min): 9.2 ± 1.56% | Cumulative released activity ([4]; released from TG-10, 120 min): 87.0 ± 2.76% | Cumulative released activity ([4]; released from TG-10, last line of table, time not given): 88.0%
Substance: ^68Gallium (((1S)-1-carboxy-5-(3-(naphthalen-2-yl)-2-((1r,4S)-4-((6-oxo-6-((4-((1,4,7-tris(carboxymethyl)-1,4,7-triazonan-2-yl)methyl)phenyl)amino)hexanamido)methyl)cyclohexane-1-carboxamido)propanamido)pentyl)carbamoyl)-L-glutamic acid triacetate [^68Ga(8)]

ΔG (ΔG^298) for the binding of the first second sphere water [2]: -7.19 ± 0.645 kcal/mol | ΔH for the binding of the first second sphere water [2]: -11.7 ± 0.621 kcal/mol | ΔS for the binding of the first second sphere water [2]: −62.9 +/− 17.5 J/mol K
Substance: ^natGallium 2,2′-(7-(2-((1-1-((2-(((S)-1-amino-3-(1H-indol-3-yl)-1-oxopropan-2-yl)amino)-2-oxoethyl)amino)-3-hydroxy-1-oxopropan-2-yl)amino)-2-oxoethyl)-1,4,7-triazonane-1,4-diyl)diacetate [^natGa-4]

autolytic release (analytical HPLC chromatograms) [1]: no autolytic release
Substance: ^natScandium 2,2′,2″-(10-(2-((1-1-((2-(((S)-1-amino-3-(1H-indol-3-yl)-1-oxopropan-2-yl)amino)-2-oxoethyl)amino)-3-hydroxy-1-oxopropan-2-yl)amino)-2-oxoethyl)-1,4,7,10-tetraazacyclododecane-1,4,7-triyl)triacetate [^natSc-5]

autolytic release (analytical radioHPLC chromatograms) ([3]; 25° C.): no autolytic release | autolytic release (analytical radioHPLC chromatograms) ([3]; 37° C.): lack of fast autolytic release
Substance: ^67Gallium (S)-2,2′-(7-(2-((2-((2-((I-amino-3-(1H-indol-3-yl)-1-oxopropan-2-yl)amino)-2-oxoethyl)amino)-2-oxoethyl)amino)-2-oxoethyl)-1,4,7-triazonane-1,4-diyl)diacetate [^67Ga-3]

autolytic release (analytical HPLC chromatograms) [1]: no autolytic release
Substance: ^natCopper 2,2′-(7-(2-((1-1-((2-(((S)-1-amino-3-(1H-indol-3-yl)-1-oxopropan-2-yl)amino)-2-oxoethyl)amino)-3-hydroxy-1-oxopropan-2-yl)amino)-2-oxoethyl)-1,4,7-triazonane-1,4-diyl)diacetate [^natCu-4]

Substance: (S)-2,2′-(7-(2-((2-((2-((I-amino-3-(1H-indol-3-yl)-1-oxopropan-2-yl)amino)-2-oxoethyl)amino)-2-oxoethyl)amino)-2-oxoethyl)-1,4,7-triazonane-1,4-diyl)diacetic acid [Compound 3]
autolytic release (analytical HPLC chromatograms) [1]: no autolytic release

autolytic release (analytical HPLC chromatograms) [1]: no autolytic release
Substance: ^natCopper (S)-2,2′-(7-(2-((2-((2-((1-amino-3-(1H-indol-3-yl)-1-oxopropan-2-yl)amino)-2-oxoethyl)amino)-2-oxoethyl)amino)-2-oxoethyl)-1,4,7-triazonane-1,4-diyl)diacetate [^natCu-3]
